Experimental data taken from PMC9845330 (Communications Biology, 2023).
“Also recorded” adds a separate entry of the source. Non-standard residues stand in square brackets, D forms with d. Residues, ends and D or L forms follow the SMILES beside them. *: point of attachment. X1 = O=C(CCCC[C@@H]1SC[C@@H]2NC(=O)N[C@@H]21)NCCCOCCOCCOCCCN*; PEG12 = NCCOCCOCCOCCOCCOCCOCCOCCOCCOCCOCCOCCOCCC(=O)O

How the values were obtained:
[1] = system: H1299 cells; assay: Cell binding and internalization by flow cytometry, relative (normalized) uptake of peptide-streptavidin-phycoerythrin; format: cell-based, human; settings: for Bmax (best-fit): Supplementary Table 2, normalized binding; for fold decrease in affinity: C-terminal truncation versus full-length monomer
Method: MGS4 was initially selected by phage display biopanning of a peptide library on live cells. […] As such, multivalent binding is often required. To ascertain whether multivalent binding is required for MGS4 internalization, monomeric (MGS4_V2) and tetrameric (MGS4_V1) peptides were synthesized and labeled as described (Supplementary Figure 1). After incubation of varying peptide concentrations on live cells, surface-bound peptide was removed by low pH washes, as well as trypsinization. Relative internalization was measured by flow cytometry to determine an EC50 value which represents the concentration of peptide producing half-maximal internalization. This measurement is dependent on the affinity of the peptide for its cellular target and the rate of internalization. This is a more accurate representation of the biological situation and useful in evaluating the peptides as drug delivery agents. As expected for receptor-mediated endocytosis, uptake of MGS4 is saturable with increasing concentration.
Fig. 1 Monomeric and tetrameric MGS4 have similar binding, internalization and subcellular location. a Binding and internalization of tetrameric MGS4_V1 and monomeric MGS4_V2 on live H1299 cells in culture. Cells were incubated with the peptide conjugated to streptavidin-phycoerythrin for 1 h at 37 °C. Non-internalized peptide was removed and the cells were analyzed by flow cytometry. b H1299 cells were incubated with MGS4_V1 or MGS4_V2 conjugated to streptavidin-Alexa Fluor 555 (red) for 1 h, washed, fixed and counterstained with WGA-Alexa Fluor 488 (green, cell membrane) and DAPI (blue, nuclei) and analyzed by fluorescence microscopy. The scale bar represents 20 µm. MGS4_V1 and MGS4_V2 internalize to a similar degree and localize to a similar destination. c Truncated monomeric MGS4 peptides have similar EC50 as the parental full-length peptide. Individual measurements are shown. The mean is shown as an “X” and black error bars represent standard error for a minimum of three experimental replicates (SEM). All original binding data and nonlinear regression analysis of the data are included in the supplementary materials.
Biotinylated peptide was conjugated to streptavidin-R-phycoerythrin or streptavidin-Alexa Fluor 647 (1:1 molar ratio) for 30 min. The open binding sites on streptavidin were quenched with RPMI 1640 and diluted to the indicated concentration. Tumor cells were grown to 90% confluency in a 12 well plate, then incubated with 500 µl peptide-dye conjugate at 37 °C. After 1 h, peptide was removed, and the cells were washed 3x with PBS (137 mM NaCl, 2.7 mM KCl, 10 mM Na2HPO4, 1.8 mM KH2PO4, pH 7.4), 2x with 0.1 M HCl-glycine pH2.2 in 0.9% NaCl, and 1x PBS rinse. Cells were removed by trypsinization. Flow cytometry was performed on a BD FACSCelesta, and data were analyzed on Flowing software. Cells were gated based on the forward and side scatter to include only viable cells and a minimum of 10,000 events were counted. A region containing <5% of the cells in the negative control was established, and relative peptide uptake by the mean fluorescence intensity of that population. For absolute peptide uptake per cell, a standard curve was generated using Quantum™ Alexa Fluor 647 microspheres (Bangs Laboratory, Fishers, IN). A representative linear regression showing the correlation of molecule equivalents soluble fluorophores (MESF) vs the mean fluorescence intensity (MFI) is shown in Supplemental Figure 6. Cells were gated based on the forward and side scatter to include only viable cells and a minimum of 10,000 events were counted. MFI was determined at 50% at peak height. Molecules internalized per cell were determined by the standard curve relating MESF to MFI and divided by the number dye molecules/MGS conjugate. An example is shown in supplemental Figure 7. GraphPad Prism® was used for non-linear regression curve fitting to calculate an EC50. […]

[2] = Stability in human serum; format: in vitro ADME; settings: 100% human serum, 48 h, 37 °C, serum proteins precipitated, analytical HPLC, MALDI TOF/TOF MS
Method: To address if acetylation is effective in reducing serum degradation of MGS4, acetylated (MGS4_V8) and non-acetylated (MGS4_V4) peptides were dissolved in human serum and incubated for 48 h at 37 °C. The peptides were monitored by analytical HPLC, and products were verified via MALDI TOF/TOF™ MS. […] Instead, a mixture of peptide fragments is detected, none of which correspond to the mass of the starting peptide (Supplemental Table 1 and Supplemental Fig. 2). The major products are shorter fragments corresponding to the loss of the five N-terminal amino acids. Fragments related to QSFYT-PEG11, SFYT-PEG11 and FYT-PEG11 are observed.
Supplemental Figure 1. […]
M GS4_V4 (non-acetylated, panel a) and M GS4_V8 (acetylated, panel b ) were incubated in 100% human serum for 0 and 48-hours. Serum proteins were precipitated, and the peptide was analyzed by analytical
HPLC. The mass of the peptide and degradation products were determined by MALDI MS and are […]
MGS4_V8, MGS4_V9, or MGS4_V10 were conjugated with streptavidin-Alexa Fluor 650 and were incubated with the indicated cell line for 1 hour. Non-internalized peptide was rem ov ed, and the mean number of peptides internalized per cell was determined to calculate the EC50. […]
Supplemental Figure 4 : Peptide-Streptavidin conjugates are nontoxic to cells. a. […] After 72 hours, viability was measured. […]

[3] = 100% human serum; settings: 37 °C, up to 48 h
[4] = H1299 cells, 1 h at 37 °C, normalized uptake, one-site specific binding fit, Average ± SEM, minimum 3 replicates

## CC(C)[C@H](NC(=O)[C@H](C)NC(=O)[C@H](Cc1c[nH]cn1)NC(=O)[C@@H](N)Cc1ccccc1)C(=O)N1CCC[C@H]1C(=O)N[C@@H](CCC(N)=O)C(=O)N[C@@H](CO)C(=O)N[C@@H](Cc1ccccc1)C(=O)N[C@@H](Cc1ccc(O)cc1)C(=O)N[C@H](C(=O)N[C@@H](C)C(=O)N1CCC[C@H]1C(=O)NCCOCCOCCOCCOCCOCCOCCOCCOCCOCCOCCOCCOCCC(=O)N[C@@H](CCC(=O)NCCCOCCOCCOCCCNC(=O)CCCC[C@@H]1SC[C@@H]2NC(=O)N[C@@H]21)C(N)=O)[C@@H](C)O [MGS4_V2] (H-FHAVPQSFYTAP[PEG12]E(X1)-NH2)
[1]
  Bmax (best-fit): 1.065

## CC(C)[C@H](NC(=O)[C@H](C)NC(=O)[C@H](Cc1c[nH]cn1)NC(=O)[C@@H](N)Cc1ccccc1)C(=O)N1CCC[C@H]1C(=O)N[C@@H](CCC(N)=O)C(=O)N[C@@H](CO)C(=O)N[C@@H](Cc1ccccc1)C(=O)N[C@@H](Cc1ccc(O)cc1)C(=O)N[C@H](C(=O)N[C@@H](C)C(=O)NCCOCCOCCOCCOCCOCCOCCOCCOCCOCCOCCOCCOCCC(=O)N[C@@H](CCC(=O)NCCCOCCOCCOCCCNC(=O)CCCC[C@@H]1SC[C@@H]2NC(=O)N[C@@H]21)C(N)=O)[C@@H](C)O [MGS4_V3] (H-FHAVPQSFYTA[PEG12]E(X1)-NH2)
[1]
  fold decrease in affinity: 3-5 fold
  Bmax (best-fit): 1.247

## CC(C)[C@H](NC(=O)[C@H](C)NC(=O)[C@H](Cc1c[nH]cn1)NC(=O)[C@@H](N)Cc1ccccc1)C(=O)N1CCC[C@H]1C(=O)N[C@@H](CCC(N)=O)C(=O)N[C@@H](CO)C(=O)N[C@@H](Cc1ccccc1)C(=O)N[C@@H](Cc1ccc(O)cc1)C(=O)N[C@H](C(=O)NCCOCCOCCOCCOCCOCCOCCOCCOCCOCCOCCOCCOCCC(=O)N[C@@H](CCC(=O)NCCCOCCOCCOCCCNC(=O)CCCC[C@@H]1SC[C@@H]2NC(=O)N[C@@H]21)C(N)=O)[C@@H](C)O [MGS4_V4] (H-FHAVPQSFYT[PEG12]E(X1)-NH2)
[2]
  peptide after incubation in human serum: none of the starting material
[1]
  fold decrease in affinity: 3-5 fold
  Bmax (best-fit): 1.402

## CC(=O)N[C@@H](Cc1ccccc1)C(=O)N[C@@H](Cc1c[nH]cn1)C(=O)N[C@@H](C)C(=O)N[C@H](C(=O)N1CCC[C@H]1C(=O)N[C@@H](CCC(N)=O)C(=O)N[C@@H](CO)C(=O)N[C@@H](Cc1ccccc1)C(=O)N[C@@H](Cc1ccc(O)cc1)C(=O)N[C@H](C(=O)N[C@@H](C)C(=O)N1CCC[C@H]1C(=O)NCCOCCOCCOCCOCCOCCOCCOCCOCCOCCOCCOCCOCCC(=O)N[C@@H](CCC(=O)NCCCOCCOCCOCCCNC(=O)CCCC[C@@H]1SC[C@@H]2NC(=O)N[C@@H]21)C(N)=O)[C@@H](C)O)C(C)C [MGS4_V7] (Ac-FHAVPQSFYTAP[PEG12]E(X1)-NH2)
[1]
  Bmax (best-fit): 1.470

## AcFHAVPQSFYT-PEG11
[3]
  not cleaved: only full-length peptide observed after 48 h; 93.4% of peak at 48 Hours (93.5% in starting material)

## FHAVPQSFY*** [MGS4_V5, monomeric MGS4 truncated by three C-terminal amino acids]
[1]; [4]
  EC50 (nM): Not Detected^2

## FHAVPQSFYT-PEG11
[3]
  cleaved bond: P-Q, major, 48 Hours
  fragment found: SFYT-PEG11, 48 Hours; also recorded: FYT-PEG11, 48 Hours

## FHAVPQSFYTAP [MGS4_V1, tetrameric full-length MGS4 peptide]
[1]; [4]
  EC50: 3.6 ± 0.49 nM
[1]
  Bmax (best-fit): 1.171
